Publication PMC8881077 (Journal of Enzyme Inhibition and Medicinal Chemistry, 2022)

How the values were obtained:
[1] = test system: normal human hepatocytes cell line (LO2); test: Hepatoprotective activity on H2O2-induced LO2 cell injury; type: cell-based; conditions: LO2 cells, 1000 μM H2O2
Procedure: The anti-AD drug tacrine has been forced to withdraw due to severe hepatotoxicity. Thus, the hepatotoxicity of compounds 5f on normal human hepatocytes cell line (LO2) was evaluated using MTT assay. […] Furthermore, the hepatoprotective activity of compound 5f on H2O2-induced live injury was tested using an MTT assay. […]
• Materials. LO2 cells purchased from Wuhan Punosi Life Technology Co., Ltd. 30% H2O2, Trichloroacetic acid (TCA), SRB, DMEM medium (HyClone), Foetal bovine serum (LNSER, article number: S711-001S), Penicillin streptomycin mixture (double antibiotic) (Solarbio), 0.25% trypsin-EDTA digestive juice (Solarbio), DMSO (Solarbio), Potassium dihydrogen phosphate (Xiyu Science Co., Ltd., CAS: 7778-77-0); Ultra-clean workbench (Wuxi Easy Purification Equipment Co., Ltd., model: SW-CJ-VS2); Carbon dioxide incubator (Esco, model: 2014-88759); […]; • Experiment method. (a) Cell culture: cultured in DMEM medium containing 10% FBS and 1% double-antibody, placed in 37 °C, 5% CO2 constant temperature and humidity incubator, changed every 2 days, subcultured when cells were 90% confluent. (b) Effect of compounds on LO2 proliferation by SRB assay: Discard the culture medium, fix the cells with 10% (m/v) trichloroacetic acid (TCA) 100 μL, and place in a refrigerator at 4 °C for 1 h. The fixing solution was discarded, washed 5 times with distilled water, and dried in an oven. Adding 100 μL SRB solution to each well after drying, and leave it at room temperature for 10-30 min. Discard the supernatant, wash it 5 times with 1% glacial acetic acid water, air dry. Finally, add 100 μL/well of 10 mmol/L Tris-based buffer solution and oscillate on a plate shaker. The OD value was measured at 515 nm using a microplate reader. Cell viability (%) = OD test well/OD blank control well x 100%. (c) Effect of compounds on H2O2-induced LO2 cell injury by SRB assay. […] After treatment with H2O2 for 6h, the survival rate was measured by the SRB method.

SPF Kunming mice = test: Acute toxicity; type: in vivo
Procedure: Kunming mice at a body weight of 18–22 g (six weeks old, either gender) were supplied by the Centre of Experimental Animals of Sichuan Academy of Chinese Medicine Sciences (eligibility certification no. SCXK-Chuan2018-19). Mice were maintained under standard conditions with a 12 h:12 h light-dark cycle at 20−22 °C with a relative humidity of 60 − 70%. Sterile food and water were provided according to institutional guidelines. Prior to each experiment, mice were fasted overnight and allowed free access to water. […] After the administration of the compound 5f, the mice were observed continuously for the first 4 h for any abnormal behaviour and mortality changes, intermittently for the next 24 h, and occasionally thereafter for 14 days for the onset of any delayed effects. All animals were sacrificed on the 14th day after drug administration and were macroscopically examined for possible damage to the heart, liver, and kidneys.

in vitro = conditions: PAMPA

With `CCN(CCCCCOc1cc(O)c2c(c1)OC(c1ccc(O)cc1)CC2=O)Cc1ccccc1` (stereo not shown) [Compound 5f, 7-((5-(benzyl(ethyl)amino)pentyl)oxy)-5-hydroxy-2–(4-hydroxyphenyl)chroman-4-one] the viability at 5 µM ([1]; L02, 5.0 μM) was 65.2%, the viability at 10 µM ([1]; L02, 10.0 μM) was 69.7% and the viability at 20 µM ([1]; L02, 20.0 μM) was 79.4%. For the same compound, the “acute toxicity, recovery” value (SPF Kunming mice; after 24h) was “returned to normal”, the “acute toxicity, heart, liver, spleen, lung and kidney” value (SPF Kunming mice; after 7 days) was “no abnormalities were observed” and the “acute toxicity, observed signs” value (SPF Kunming mice; dose of 500 mg/kg, intragastric) was “decreased spontaneous activity and movement, drowsiness, dyspnoea and reduced breathing rate”. For the same compound, the Papp at 100 μg/mL (in vitro) was 6.9 ± 0.36 ×10⁻⁶ cm/s.
